Measurements taken from patent publication US4853467A, “Nitrogen containing derivatives of epipodophyllotoxin glucosides” (Bristol-Myers Company, priority 1987, dated 1989).
Converted amounts (≈) assume the structure as drawn.

How the values were obtained:
[1] = tested on: Moser human colon; experiment: In vitro cytotoxicity assay, Moser human colon; type: cell-based; conditions: two values per compound, four-fold serial dilution; for IC50: Homo sapiens
Method: (§1) The in vitro cytotoxicity assay involved growing various mammalian tumor cells, including human tumor cells, on microtitre plates employing established tissue culture methods. The concentration of each compound required to inhibit cell growth by 50% (IC50) was then determined by a four-fold serial dilution technique. The validity of the method has been supported by a report published in the "Proceedings of the American Association for Cancer Research", 1984, 25:1891 (Abst. No. 328). Tumor cells of the following types were employed for each compound tested: B16-F10 murine melanoma; Moser human colon; SW900 human lung and three human colon tumor cell lines namely HCT-116, HCT-VM, and HCT-VP, the latter two being resistant to teniposide (VM) and etoposide (VP), respectively. IC50 values less than 500 μg/ml are a positive indicator of antitumor activity. Table II presents IC50 values of various compounds of the present invention against the aforementioned cell lines.

[2] = tested on: HCT/VP35; experiment: In vitro cytotoxicity assay, HCT/VP35 etoposide-resistant human colon tumor; type: cell-based; conditions: two values per compound, four-fold serial dilution; for In vitro cytotoxicity IC50, HCT/VP35: HCT/VP35, resistant to etoposide; for IC50: Homo sapiens, HCT/VP35, HCT/VP35, resistant to etoposide
Method: as §1

[3] = tested on: SW900 human lung; experiment: In vitro cytotoxicity assay, SW900 human lung; type: cell-based; conditions: two values per compound, four-fold serial dilution; for IC50: Homo sapiens, SW900, SW900 human lung; for In vitro cytotoxicity IC50, SW900: SW900 human lung
Method: as §1

[4] = tested on: HCT-116; experiment: In vitro cytotoxicity assay, HCT-116 human colon tumor; type: cell-based; conditions: two values per compound, four-fold serial dilution; for In vitro cytotoxicity IC50, HCT-116: HCT-116 human colon; for IC50: Homo sapiens, HCT-116, HCT-116 human colon
Method: as §1

[5] = tested on: HCT/VM34; experiment: In vitro cytotoxicity assay, HCT/VM34 teniposide-resistant human colon tumor; type: cell-based; conditions: HCT/VM34, resistant to teniposide, two values per compound, four-fold serial dilution; for IC50: Homo sapiens
Method: as §1

[6] = tested on: B16-F10 murine melanoma; experiment: In vitro cytotoxicity assay, B16-F10 murine melanoma; type: cell-based; conditions: two values per compound, four-fold serial dilution; for In vitro cytotoxicity IC50, B-16-F10: B16-F10 murine melanoma; for IC50: Mus musculus, B16-F10, B16-F10 murine melanoma, read-out: In vitro cytotoxicity IC50, B-16-F10
Method: as §1

[7] = tested on: P388 murine leukemia; experiment: P388 Leukemia, antitumor activity against murine P388 leukemia; type: in vivo, murine (female CDF1 mice); conditions: i.p. on days 5 and 8; 10^6 P388 cells i.p.; maximum effect over doses; >=125 considered significant; etoposide values in parentheses are positive control in same experiment
Method: Female CDF1 mice were implanted intraperitoneally with a tumor inoculum of 10^6 ascites cells of P388 murine leukemia and treated with various doses of a test compound; four mice were used for each dose level and ten were used as saline-treated control. The compounds were administered by intraperitoneal injection on days 5 and 8 (day 1 being the day of tumor implantation). Antitumor activity was expressed as % T/C which is the ratio of the median survival time (MST) of drug-treated group to the MST of saline-treated control group. A compound showing a % T/C value of 125 or greater is generally considered to have significant antitumor activity in the P388 test. The experiment lasted 31 days at the end of which time the number of survivors was noted. Table I presents the results of the above-described evaluation; only the maximum % T/C and the dose showing the maximum effect are reported.

SMILES	IC50 [1] [µg/mL]	In vitro cytotoxicity IC50, MOSER [1] [µg/mL]	In vitro cytotoxicity IC50, HCT/VP35 [2] [µg/mL]	IC50 [2] [µg/mL]	IC50 [3] [µg/mL]	In vitro cytotoxicity IC50, HCT-116 [4] [µg/mL]	IC50 [4] [µg/mL]	In vitro cytotoxicity IC50, HCT/VM34 [5] [µg/mL]	IC50 [5] [µg/mL]	In vitro cytotoxicity IC50, B-16-F10 [6] [µg/mL]	IC50 [6] [µg/mL]	Max % T/C (ratio of median survival time of drug-treated group to saline-treated control group) [7] [%]	In vitro cytotoxicity IC50, SW900 [3] [µg/mL]
CNc1cc([C@@H]2c3cc4c(cc3[C@@H](O[C@@H]3O[C@@H]5CO[C@@H](C)O[C@H]5[C@H](O)[C@H]3O)[C@H]3COC(=O)[C@H]23)OCO4)cc(OC)c1O [Example 4, 3'-Desmethoxy-3'-methylamine etoposide]	56 (≈ 95.3 µM)	49	47	40 (≈ 68.1 µM)	63 (≈ 107 µM)	15.7	16.2 (≈ 27.6 µM)	33	23 (≈ 39.1 µM)	17.9	13.9 (≈ 23.7 µM)	170	–
COc1cc([C@@H]2c3cc4c(cc3[C@@H](O[C@@H]3O[C@@H]5CO[C@@H](C)O[C@H]5[C@H](O)[C@H]3O)[C@H]3COC(=O)[C@H]23)OCO4)cc(NC(=O)NCc2ccccc2)c1O [Example 11, 3'-Desmethoxy-3'-([[phenylmethyl)amino]carbonyl]amino etoposide]	89 (≈ 126 µM)	93	31	30 (≈ 42.5 µM)	74 (≈ 105 µM)	98	58 (≈ 82.1 µM)	26	24 (≈ 34 µM)	40	44 (≈ 62.3 µM)	110	84
COc1cc([C@@H]2c3cc4c(cc3[C@@H](O[C@@H]3O[C@@H]5CO[C@@H](C)O[C@H]5[C@H](O)[C@H]3O)[C@H]3COC(=O)[C@H]23)OCO4)cc(NCN2C(=O)CCC2=O)c1O [Example 13, 3'-Desmethoxy-3'-[(N-succinimido)methyl]amino etoposide]	12.3 (≈ 18 µM)	12.1	3.3	3.4 (≈ 4.97 µM)	11 (≈ 16.1 µM)	4.1	3.6 (≈ 5.26 µM)	3.9	2.7 (≈ 3.94 µM)	8.7	5.5 (≈ 8.03 µM)	230	8.6
COc1cc([C@@H]2c3cc4c(cc3[C@@H](O[C@@H]3O[C@@H]5CO[C@@H](C)O[C@H]5[C@H](O)[C@H]3O)[C@H]3COC(=O)[C@H]23)OCO4)cc(N=Cc2ccsc2)c1O [Example 17, 3'-Desmethyoxy-3'-[(3-thienyl)methylene]amino etoposide]	45 (≈ 67.4 µM)	–	44	31 (≈ 46.4 µM)	22 (≈ 32.9 µM)	10.1	12.3 (≈ 18.4 µM)	24	23 (≈ 34.4 µM)	8.4	6.7 (≈ 10 µM)	195	44
COc1cc([C@@H]2c3cc4c(cc3[C@@H](O[C@@H]3O[C@@H]5CO[C@@H](C)O[C@H]5[C@H](O)[C@H]3O)[C@H]3COC(=O)[C@H]23)OCO4)cc(N=Cc2cccc([N+](=O)[O-])c2)c1O [Example 22, 3'-Desmethoxy-3'-[[(3-nitro)phenyl]methylene]amino etoposide]	> 250	–	43	36 (≈ 50.9 µM)	> 250	13.3	17 (≈ 24.1 µM)	16.2	21 (≈ 29.7 µM)	14.1	10.9 (≈ 15.4 µM)	235	–
